Measurements published in patent US20240083857A1, “2-Methyl-Quinazolines” (Bayer Pharma Aktiengesellschaft, priority 2017, published 2024).
pIC50: −log10 of the molar value.

Legend:
[1] = molecular target: K-Ras^G12C : hSOS1 interaction (Homo sapiens, UniProt Q07889); experiment: Biochemical assay 1: K-Ras^G12C interaction assay with hSOS1 (HTRF); format: binding; details: for inhibition at 20 µM: read-out: Assay 1 (KRAS-SOS Interaction) activity expressed as % inhibition at 20 μM; for pIC50: read-out: Assay 1 (KRAS-SOS Interaction) activity expressed as IC50
[2] = molecular target: human SOS1 (nucleotide exchange of K-Ras^G12C) (Homo sapiens, UniProt Q07889); experiment: Biochemical assay 2: K-Ras^G12C activation assay by hSOS1 at high GTP concentration (HTRF); details: high GTP; for inhibition at 20 µM: read-out: Assay 2 (KRAS-Activation by SOS high GTP) activity expressed as % inhibition at 20 μM; for pIC50: read-out: Assay 2 (KRAS-Activation by SOS high GTP) activity expressed as IC50
[3] = molecular target: human SOS1 (loading of human K-Ras^G12C-GDP with fluorescent GTP-analog) (Homo sapiens, UniProt Q07889); experiment: Biochemical assay 3: K-Ras^G12C activation assay by hSOS1 (HTRF); details: no GTP; for inhibition at 20 µM: read-out: Assay 3 (KRAS-Activation by SOS no GTP) activity expressed as % inhibition at 20 μM; for pIC50: read-out: Assay 3 (KRAS-Activation by SOS no GTP) activity expressed as IC50

SMILES	inhibition at 20 µM [1] [%]	inhibition at 20 µM [2] [%]	inhibition at 20 µM [3] [%]	pIC50 [1]	pIC50 [2]	pIC50 [3]
COc1cc2nc(C)nc(N[C@@H](C)c3ccc(-c4cccc(OCc5ccccc5)c4)s3)c2cc1OC (stereo in doubt) [Example 135, N-[1-{5-[3-(benzyloxy)phenyl]thiophen-2-yl}ethyl]-6,7-dimethoxy-2-methylquinazolin-4-amine]	28	5	13	–	–	–
CCCCOc1cccc(F)c1-c1ccc([C@H](C)Nc2nc(C)nc3cc(OC)c(OC)cc23)s1 (stereo in doubt) [Example 136, N-{1-[5-(2-butoxy-6-fluorophenyl)thiophen-2-yl]ethyl}-6,7-dimethoxy-2-methylquinazolin-4-amine]	37	20	18	–	–	–
COc1cc2nc(C)nc(N[C@@H](C)c3ccc(-c4ccc(C(C)(C)C#N)cc4)s3)c2cc1OC (stereo in doubt) [Example 137, 2-[4-(5-{1-[(6,7-dimethoxy-2-methylquinazolin-4-yl)amino]ethyl}thiophen-2-yl)phenyl]-2-methylpropanenitrile]	48	36	32	–	–	–
CCCOc1ccc(Cl)cc1-c1ccc([C@H](C)Nc2nc(C)nc3cc(OC)c(OC)cc23)s1 (stereo in doubt) [Example 144, N-{1-[5-(5-chloro-2-propoxyphenyl)thiophen-2-yl]ethyl}-6,7-dimethoxy-2-methylquinazolin-4-amine]	30	12	19	–	–	–
COc1cc2nc(C)nc(N[C@@H](C)c3ccc(-c4ccccc4Oc4ccccc4)s3)c2cc1OC (stereo in doubt) [Example 158, 6,7-dimethoxy-2-methyl-N-{1-[5-(2-phenoxyphenyl)thiophen-2-yl]ethyl}quinazolin-4-amine]	29	4	10	–	–	–
COc1cc2nc(C)nc(N[C@@H](C)c3ccc(-c4ccc(NC(=O)OC(C)(C)C)cc4)s3)c2cc1OC (stereo in doubt) [Example 159, tert-butyl [4-(5-{1-[(6,7-dimethoxy-2-methylquinazolin-4-yl)amino]ethyl}thiophen-2-yl)phenyl]carbamate]	43	27	35	–	–	–
COc1cc2nc(C)nc(N[C@@H](C)c3ccc(-c4ccc5c(c4)OCCN5C)s3)c2cc1OC (stereo in doubt) [Example 164, 6,7-dimethoxy-2-methyl-N-{1-[5-(4-methyl-3,4-dihydro-2H-1,4-benzoxazin-7-yl)thiophen-2-yl]ethyl}quinazolin-4-amine]	41	19	22	–	–	–
COc1cc2nc(C)nc(N[C@@H](C)c3ccc(-c4cccc(OCC5CC5)c4)s3)c2cc1OC (stereo in doubt) [Example 170, N-[1-{5-[3-(cyclopropylmethoxy)phenyl]thiophen-2-yl}ethyl]-6,7-dimethoxy-2-methylquinazolin-4-amine]	45	7	15	–	–	–
Cc1nc(N[C@H](C)c2ccccc2)c2cc(Br)ccc2n1 [Example 29, 6-bromo-2-methyl-N-[(1R)-1-phenylethyl]quinazolin-4-amine]	–	–	44	4.99	4.96	–
Cc1nc(N[C@H](C)c2ccc(F)cc2)c2cc(Br)ccc2n1 [Example 31, 6-bromo-N-[(1R)-1-(4-fluorophenyl)ethyl]-2-methylquinazolin-4-amine]	–	–	49	5.07	5.02	–
COc1cc2nc(C)nc(N[C@H](C)c3cccc(-c4cc(N)ccc4C)c3)c2cc1OC [Example 36, N-[(1R)-1-(5′-amino-2′-methylbiphenyl-3-yl)ethyl]-6,7-dimethoxy-2-methylquinazolin-4-amine]	–	–	–	6.27	6.00	6.16
COc1cc2nc(C)nc(N[C@H](C)c3cccc(-c4cncnc4)c3)c2cc1OC [Example 37, 6,7-dimethoxy-2-methyl-N-{(1R)-1-[3-(pyrimidin-5-yl)phenyl]ethyl}quinazolin-4-amine]	–	–	–	5.81	5.73	5.57
COc1cc2nc(C)nc(N[C@H](C)c3cccc(-c4cccc5cnccc45)c3)c2cc1OC [Example 39, N-{(1R)-1-[3-(isoquinolin-5-yl)phenyl]ethyl}-6,7-dimethoxy-2-methylquinazolin-4-amine]	–	–	–	5.84	5.74	5.52
COc1cc2nc(C)nc(N[C@H](C)c3cccc(-c4c(F)ccc(C)c4Cl)c3)c2cc1OC [Example 40, N-[(1R)-1-(2′-chloro-6′-fluoro-3′-methylbiphenyl-3-yl)ethyl]-6,7-dimethoxy-2-methylquinazolin-4-amine]	–	–	–	5.41	5.76	5.34
COc1cc2nc(C)nc(N[C@H](C)c3cccc(-c4cncc(C)c4)c3)c2cc1OC [Example 41, 6,7-dimethoxy-2-methyl-N-{(1R)-1-[3-(5-methylpyridin-3-yl)phenyl]ethyl}quinazolin-4-amine]	–	–	–	6.01	5.85	5.78
COc1cc2nc(C)nc(N[C@H](C)c3cccc(-c4cccc(-c5nnc(C)o5)c4)c3)c2cc1OC [Example 55, 6,7-dimethoxy-2-methyl-N-{(1R)-1-[3′-(5-methyl-1,3,4-oxadiazol-2-yl)biphenyl-3-yl]ethyl}quinazolin-4-amine]	–	–	–	6.17	6.20	6.14
COc1cc2nc(C)nc(N[C@H](C)c3cccc(-c4cncc(S(C)(=O)=O)c4)c3)c2cc1OC [Example 56, 6,7-dimethoxy-2-methyl-N-[(1R)-1-{3-[5-(methylsulfonyl)pyridin-3-yl]phenyl}ethyl]quinazolin-4-amine]	–	–	–	5.83	5.75	5.59
COc1cc2nc(C)nc(N[C@H](C)c3cccc(-c4ccc5c(c4)CC(=O)N5)c3)c2cc1OC [Example 57, 5-(3-{(1R)-1-[(6,7-dimethoxy-2-methylquinazolin-4-yl)amino]ethyl}phenyl)-1,3-dihydro-2H-indol-2-one]	–	–	–	6.38	6.40	6.20
COc1cc2nc(C)nc(N[C@H](C)c3cccc(C4CC4(C)C)c3)c2cc1OC (stereo partly drawn) [Example 58, N-{(1R)-1-[3-(2,2-dimethylcyclopropyl)phenyl]ethyl}-6,7-dimethoxy-2-methylquinazolin-4-amine]	–	–	–	5.75	5.79	5.51
COc1cc2nc(C)nc(N[C@H](C)c3cccc(-c4ccc(-c5nnc(C)o5)cc4)c3)c2cc1OC [Example 59, 6,7-dimethoxy-2-methyl-N-{(1R)-1-[4′-(5-methyl-1,3,4-oxadiazol-2-yl)biphenyl-3-yl]ethyl}quinazolin-4-amine]	–	–	–	5.80	6.11	6.02
COc1cc2nc(C)nc(N[C@H](C)c3cccc(-c4cnc5[nH]ccc5c4)c3)c2cc1OC [Example 60, 6,7-dimethoxy-2-methyl-N-{(1R)-1-[3-(1H-pyrrolo[2,3-b]pyridin-5-yl)phenyl]ethyl}quinazolin-4-amine]	–	–	–	6.23	6.35	5.98
